According to ChEMBL document CHEMBL1143998, “Binding to human serum albumin of zidovudine (AZT) and novel AZT derivatives. Experimental and theoretical analyses” (Bioorg Med Chem, 2008):

Key:
Assay type in all cases: ADME
Conditions in all cases: isolated protein
[1] = molecular target: T1, Albumin (Homo sapiens, UniProt P02768); test: Binding affinity to fatty acid complexed human serum albumin
[2] = molecular target: T1, Albumin; test: Binding affinity to defatted human serum albumin relative to zidovudine
[3] = molecular target: T1, Albumin; test: Binding affinity to defatted human serum albumin in presence of salicylic acid
[4] = molecular target: T1, Albumin; test: Binding affinity to defatted human serum albumin

T1 sequence (P02768 whole entry): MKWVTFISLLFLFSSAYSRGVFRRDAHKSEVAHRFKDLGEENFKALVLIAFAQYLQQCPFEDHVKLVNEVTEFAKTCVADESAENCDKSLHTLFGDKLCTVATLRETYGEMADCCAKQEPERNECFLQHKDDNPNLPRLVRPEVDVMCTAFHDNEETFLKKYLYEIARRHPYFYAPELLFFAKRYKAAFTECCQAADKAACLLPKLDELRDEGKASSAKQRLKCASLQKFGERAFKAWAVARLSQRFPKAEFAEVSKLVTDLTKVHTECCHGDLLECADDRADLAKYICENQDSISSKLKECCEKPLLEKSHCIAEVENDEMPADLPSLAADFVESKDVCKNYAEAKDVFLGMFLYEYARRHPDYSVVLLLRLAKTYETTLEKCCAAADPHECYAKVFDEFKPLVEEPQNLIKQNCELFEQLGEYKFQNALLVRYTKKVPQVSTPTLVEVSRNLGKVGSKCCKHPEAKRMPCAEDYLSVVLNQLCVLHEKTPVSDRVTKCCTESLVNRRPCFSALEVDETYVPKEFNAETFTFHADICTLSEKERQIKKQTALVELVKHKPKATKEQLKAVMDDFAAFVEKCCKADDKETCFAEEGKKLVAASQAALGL

Compound | Activity [1] [%] | Ka [1] [L/mol] | Activity [2] | Activity [3] [%] | Ka [3] [L/mol] | Activity [4] [%] | Ka [4] [L/mol]
Cc1cn([C@H]2C[C@H](N=[N+]=[N-])[C@@H](COC(=O)C(=O)N[C@@H](Cc3c[nH]c4ccccc34)C(=O)O)O2)c(=O)[nH]c1=O | 23.7 | 2172.1 | 1.73 | 17.6 | 1519.8 | 20.5 | 1803.2
Cc1cn([C@H]2C[C@H](N=[N+]=[N-])[C@@H](COC(=O)C(=O)N[C@@H](Cc3ccccc3)C(=O)O)O2)c(=O)[nH]c1=O | 5.5 | 436.6 | 1.12 | 8.3 | 716.7 | 13.6 | 1174.4
CC[C@H](C)[C@H](NC(=O)C(=O)OC[C@H]1O[C@@H](n2cc(C)c(=O)[nH]c2=O)C[C@@H]1N=[N+]=[N-])C(=O)O | 7.6 | 575.2 | 3.6 | 4.6 | 397.2 | 35.2 | 3765.4
Cc1cn([C@H]2C[C@H](N=[N+]=[N-])[C@@H](COC(=O)C(=O)N3CCC[C@H]3C(=O)O)O2)c(=O)[nH]c1=O | 16.1 | 1341.9 | 0.9 | 9.4 | 811.7 | 11.9 | 944.6
Cc1cn([C@H]2C[C@H](N=[N+]=[N-])[C@@H](COC(=O)C(=O)O)O2)c(=O)[nH]c1=O | 10.4 | 811.7 | 5.93 | 7 | 604.5 | 47 | 6201.3
Cc1cn([C@H]2C[C@H](N=[N+]=[N-])[C@@H](COC(=O)C(=O)N[C@@H](CC(C)C)C(=O)O)O2)c(=O)[nH]c1=O | 8.9 | 683.2 | 2.35 | 5.2 | 449 | 26.5 | 2457
Cc1cn([C@H]2C[C@H](N=[N+]=[N-])[C@@H](COC(=O)C(=O)N[C@@H](Cc3ccc(O)cc3)C(=O)O)O2)c(=O)[nH]c1=O | 10.4 | 890.9 | 1.17 | 9.4 | 811.7 | 14.9 | 1224.4
Cc1cn([C@H]2C[C@H](N=[N+]=[N-])[C@@H](COC(=O)C(=O)N[C@H](C(=O)O)C(C)C)O2)c(=O)[nH]c1=O | 11.9 | 944.6 | 1.47 | 15.2 | 1312.6 | 17.4 | 1535
Cc1cn([C@H]2C[C@H](N=[N+]=[N-])[C@@H](COC(=O)c3ccncc3)O2)c(=O)[nH]c1=O | 38.8 | 3277.3 | 1.64 |  |  | 19.8 | 1709.8
